Experimental data reported in patent US5340800A, “Peptide medicaments for the treatment of disease” (priority 1992, dated 1994).
Where two headings read alike, the source gives them in different places. No end group written: not given here.

Tested on: polymorphonuclear leukocyte adhesion to TNF activated endothelial cells
Assay type: cell-based, human
Details: for Average % Change of PMN Adhesion to TNF Activated ECs: average over PMN donors (# donors in parentheses); for Percent Change of Adhesion: donor 140 (second line), lower part of Table 4
Protocol: Leukocyte adherence can be measured using several assays known in the art, and the preferred assay is described by Charo, et al., 1985, Blood, 65:473. Briefly, the assay consists of labelling leukocytes with an appropriate label, incubating them with endothelial cells and determining the number of leukocytes that adhere. Preferably the cells are labelled with a gamma ray emitting isotope and the preferred labels are ^111 Indium-oxide or ^51 chromium.
Leukocytes may be isolated from human donors using standard techniques. This generally consists of isolating blood in a physiologically balanced salt solution containing an appropriate anticoagulant, and separating the leukocytes by an appropriate separation step, preferably on Ficoll-Hypaquegradients. Contaminating erythrocytes can be removed by hypotonic lysis. The resulting leukocytes are suspended in a physiologically buffered solution, pH 7.4. The preferred physiological buffered solution is Hank's balanced salt solution that is calcium and magnesium free.
The isolated leukocytes can then be labelled by incubating them for an appropriate time, generally 15 minutes, with the desired radioisotope at a predetermined concentration. The radiolabelled cells are washed to remove unincorporated label, and then suspended in an appropriate solution to perform the adhesion assay described below.
Endothelial cells can be prepared from a number of sources and by several techniques known in the art. Preferably they are obtained from human umbilical veins using the procedure of Charo et al., above. Generally, endothelial cells are isolated by enzymatic digestion of the umbilical veins using, preferably, collagenase as described by Jaffe, E. A., et al., 1973, J. of Clin. Invest, 52:2745. The cells are grown on an appropriate tissue culture substratum, preferably gelatine-coated surfaces.
The endothelial cells may be grown in a variety of tissue culture media containing appropriate supplements such as an appropriate concentration of fetal calf serum, and other supplements/additives routinely utilized by those skilled in this art that are recognized as being favorable for endothelial cells. The endothelial cells may be passaged with a dilute solution of an appropriate protease, and if desired a metal ion chelator. Preferably a solution consisting of 0.05 to 0.25% trypsin and 0.02% EDTA is used. To ensure that the cells are indeed endothelial cells, they are tested by immunofluorescence for Factor VIII antigen, a known endothelial cell marker.
Leukocyte adherence to endothelial cell monolayers may be determined as follows. Early passage endothelial cells, generally not beyond the fifth passage, are cultured on an appropriate substratum and in a suitable cell culture medium. The culture substratum is preferably pre-coated with an appropriate substance that enhances the adherence of the endothelial cells. Several such substances are known including fibronectin, poly-L-lysine, gelatin and laminin. Fibronectin is preferred. An appropriate culture substratum is a 96 well micro titer plate, and a suitable medium is Medium 199 containing fetal calf serum and other supplements known to be beneficial for the growth and maintenance of endothelial cells that are well known to those skilled in the art. Prior to adding a predetermined number of labelled leukocytes, the endothelial cell monolayer is washed with a physiologically balanced salt solution containing a reduced amount of fetal calf serum, preferably 1%. The preferred solution is RPMI supplemented with 1% fetal calf serum.
The endothelial cell monolayer containing added leukocytes is incubated for a time sufficient to permit maximum adherence of the leukocytes, and preferably this is conducted at 37° C. for 30 minutes in an appropriate cell culture atmosphere. Generally this would consist of growing and incubating the cells for the assay period in 5% CO2, 95% air, and 95% humidity. […]

Sequence	Average % Change of PMN Adhesion to TNF Activated ECs (10^-4 M)	Average % Change of PMN Adhesion to TNF Activated ECs (10^-6 M)	Average % Change of PMN Adhesion to TNF Activated ECs (10^-8 M) [%]	Average % Change of PMN Adhesion to TNF Activated ECs (10^-5 M)	Average % Change of PMN Adhesion to TNF Activated ECs (10^-7 M)	other results
AHKLAENNIQPIFAVT [Peptide 2-16, NH2 --Ala--His--Lys--Leu--Ala--Glu--Asn--Asn--Ile--Gln--Pro--Ile--Phe--Ala--Val--Thr--COOH]	-7%	-1%	-2			
CRIARLEEKVKTLKAQNSELASTANMLREQVAQLKQKVMNHA [WT, NH2 --Cys--Arg--Ile--Ala--Arg--Leu--Glu--Glu--Lys--Val--Lys--Thr--Leu--Lys--Ala--Gln--Asn--Ser--Glu--Leu--Ala--Ser--Thr--Ala--Asn--Met--Leu--Arg--Glu--Gln--Val--Ala--Gln--Leu--Lys--Gln--Lys--Val--Met--Asn--His--Ala--COOH, reference compound]	-54%	+22%	-15	0%	+8%	activity on PMN adhesion at 10^-4 M (in words) (10^-4 M): inhibited polymorphonuclear leukocyte adhesion
DAPEGGLDAMMQVA [Peptide 5-14, NH2 --Asp--Ala--Pro--Glu--Gly--Gly--Leu--Asp--Ala--Met--Met--Gln--Val--Ala--COOH]	+9%	+7%	0			
DGFHFAGDGKLGAI [Peptide 4-14, NH2 --Asp--Gly--Phe--His--Phe--Ala--Gly--Asp--Gly--Lys--Leu--Gly--Ala--Ile--COOH]	-9%	-4%	-6	+28%	+12%	inhibitory activity in the PMN adhesion assay (in words): little activity
IGWRNVTRLLVFATD [Peptide 4-15, NH2 --Ile--Gly--Trp--Arg--Asn--Val--Thr--Arg--Leu--Leu--Val--Phe--Ala--Thr--Asp--COOH]						concentration of peak inhibitory activity in the PMN adhesion assay: 10^4 to 10^-5 M; inhibitory activity in the PMN adhesion assay (in words): active; Percent Change of Adhesion (10^-5 M (first column (so in the source))): -53%; Percent Change of Adhesion, Average (10^-5 M, average of donors 140, 195, 363, 515, 140): -5 ± 3%; Percent Change of Adhesion (10^-5 M): 0%; Percent Change of Adhesion, Average (10^-6 M, average of donors 140, 195, 363, 515, 140): -6 ± 2%; Percent Change of Adhesion, Average (1000.0): -17 ± 2%; Percent Change of Adhesion, Average (100000.0): -58 ± 7%
KTVLPFVNTHPDKLRN [Peptide 6-16, NH2 --Lys--Thr--Val--Leu--Pro--Phe--Val--Asn--Thr--His--Pro--Asp--Lys--Leu--Arg--Asn--COOH]	+6%	-11%	-25			
RIARLEEKVKTLKAENSELASTANMLREEVAQLEQEVMNHA [Peptide 2X, NH2 --Arg--Ile--Ala--Arg--Leu--Glu--Glu--Lys--Val--Lys--Thr--Leu--Lys--Ala--Glu--Asn--Ser--Glu--Leu--Ala--Ser--Thr--Ala--Asn--Met--Leu--Arg--Glu--Glu--Val--Ala--Gln--Leu--Glu--Gln--Glu--Val--Met--Asn--His--Ala--COOH, reference compound]	-38%		-20	-1%	-23%	concentration range over which the peptide had activity on PMN adhesion: 10^-4 to 10^-8 M
RIARLKEKVKTLKAKNSELASTANMLREQVAQLKQKVMNHA [JUN-k, NH2 --Arg--Ile--Ala--Arg--Leu--Lys--Glu--Lys--Val--Lys--Thr--Leu--Lys--Ala--Lys--Asn--Ser--Glu--Leu--Ala--Ser--Thr--Ala--Asn--Met--Leu--Arg--Glu--Gln--Val--Ala--Gln--Leu--Lys--Gln--Lys--Val--Met--Asn--His--Ala--COOH, reference compound]	-25%	+3%		-15%	-7%	activity on PMN adhesion at 10^-4 M (in words) (10^-4 M): inhibited polymorphonuclear leukocyte adhesion
SSNVVHLIKNAYNKLSS [Peptide 3-17, NH2 --Ser--Ser--Asn--Val--Val--His--Leu--Ile--Lys--Asn--Ala--Tyr--Asn--Lys--Leu--Ser--Ser--COOH]	-13%	+13%	-7	+43%	-18%	
SYSMLDDLRNVKKLG [Peptide 1-15, NH2 --Ser--Tyr--Ser--Met--Leu--Asp--Asp--Leu--Arg--Asn--Val--Lys--Lys--Leu--Gly--COOH]	-24%	-9%	-4			
